Data as given in patent US10844038B2, “1,2-dithiolane compounds useful in neuroprotection, autoimmune and cancer diseases and conditions” (SABILA BIOSCIENCES LLC, priority 2016, dated 2020).
Where two headings read alike, the source gives them in different places.

Tests used:
[1] = target: mTOR (Homo sapiens (Human), UniProt P42345); assay: KINOMEscan competition binding assay (Kd); settings: read-out: Kd Values Against mTOR Kinase: mTOR
Description: (§1) KINOMEscan™ is based on a competition binding assay that quantitatively measures the ability of a test compound of the invention to compete with an immobilized, active-site directed ligand. The Kinase assay is performed by combining three components: DNA-tagged kinase; immobilized ligand; and a test compound. The ability of the test compound to compete with the immobilized ligand is measured via quantitative PCR of the DNA tag.
(§2) For most assays, kinase-tagged T7 phage strains were prepared in an E. coli host derived from the BL21 strain. E. coli were grown to log-phase and infected with T7 phage and incubated with shaking at 32° C. until lysis. The lysates were centrifuged and filtered to remove cell debris. The remaining kinases were produced in HEK-293 cells and subsequently tagged with DNA for qPCR detection. Streptavidin-coated magnetic beads were treated with biotinylated small molecule ligands for 30 minutes at room temperature to generate affinity resins for kinase assays. The liganded beads were blocked with excess biotin and washed with blocking buffer (SeaBlock (Pierce), 1% BSA, 0.05% Tween 20, 1 mM DTT) to remove unbound ligand and to reduce nonspecific binding. […] All reactions were performed in polystyrene 96-well plates in a final volume of 0.135 ml. […] The kinase concentration in the eluates was measured by qPCR.

[2] = target: MEK5 (Homo sapiens (Human), UniProt Q13163); assay: KINOMEscan competition binding assay (Kd)
MEK5, sequence (Q13163 whole entry): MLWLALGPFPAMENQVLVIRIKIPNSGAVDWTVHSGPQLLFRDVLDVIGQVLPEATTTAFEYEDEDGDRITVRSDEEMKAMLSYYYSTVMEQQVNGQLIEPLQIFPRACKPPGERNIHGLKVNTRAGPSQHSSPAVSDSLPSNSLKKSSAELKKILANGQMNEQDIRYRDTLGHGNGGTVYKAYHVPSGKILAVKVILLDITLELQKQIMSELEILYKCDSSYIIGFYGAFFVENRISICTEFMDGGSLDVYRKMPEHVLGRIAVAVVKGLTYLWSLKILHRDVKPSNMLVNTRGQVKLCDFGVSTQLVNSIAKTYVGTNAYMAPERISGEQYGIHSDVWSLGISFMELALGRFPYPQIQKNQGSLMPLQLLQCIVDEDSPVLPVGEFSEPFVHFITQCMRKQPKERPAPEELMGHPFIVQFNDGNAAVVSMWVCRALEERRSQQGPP
Description: as §1, §2

[3] = target: MEK1 (Homo sapiens (Human), UniProt Q02750); assay: KINOMEscan competition binding assay (Kd); settings: read-out: Kd Values Against MEK Kinases Isoforms: MEK1
MEK1, sequence (Q02750 whole entry, canonical isoform): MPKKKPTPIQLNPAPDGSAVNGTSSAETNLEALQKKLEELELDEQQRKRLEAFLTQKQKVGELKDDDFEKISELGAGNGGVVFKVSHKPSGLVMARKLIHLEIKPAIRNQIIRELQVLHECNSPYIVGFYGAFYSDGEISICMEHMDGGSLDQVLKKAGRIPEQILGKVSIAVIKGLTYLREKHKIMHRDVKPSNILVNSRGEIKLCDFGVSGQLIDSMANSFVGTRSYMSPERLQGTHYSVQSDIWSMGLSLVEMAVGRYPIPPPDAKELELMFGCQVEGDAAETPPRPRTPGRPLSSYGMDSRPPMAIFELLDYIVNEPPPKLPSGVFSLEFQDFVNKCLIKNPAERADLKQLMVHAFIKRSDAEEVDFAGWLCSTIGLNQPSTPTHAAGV
Description: as §1, §2

[4] = target: CRAP (Homo sapiens (Human), UniProt P04049); assay: Radioisotope filter binding assay; type: biochemical; settings: read-out: IC50 Activity Levels Against MAPK Pathway Kinases: CRAP
CRAP, sequence (P04049 whole entry): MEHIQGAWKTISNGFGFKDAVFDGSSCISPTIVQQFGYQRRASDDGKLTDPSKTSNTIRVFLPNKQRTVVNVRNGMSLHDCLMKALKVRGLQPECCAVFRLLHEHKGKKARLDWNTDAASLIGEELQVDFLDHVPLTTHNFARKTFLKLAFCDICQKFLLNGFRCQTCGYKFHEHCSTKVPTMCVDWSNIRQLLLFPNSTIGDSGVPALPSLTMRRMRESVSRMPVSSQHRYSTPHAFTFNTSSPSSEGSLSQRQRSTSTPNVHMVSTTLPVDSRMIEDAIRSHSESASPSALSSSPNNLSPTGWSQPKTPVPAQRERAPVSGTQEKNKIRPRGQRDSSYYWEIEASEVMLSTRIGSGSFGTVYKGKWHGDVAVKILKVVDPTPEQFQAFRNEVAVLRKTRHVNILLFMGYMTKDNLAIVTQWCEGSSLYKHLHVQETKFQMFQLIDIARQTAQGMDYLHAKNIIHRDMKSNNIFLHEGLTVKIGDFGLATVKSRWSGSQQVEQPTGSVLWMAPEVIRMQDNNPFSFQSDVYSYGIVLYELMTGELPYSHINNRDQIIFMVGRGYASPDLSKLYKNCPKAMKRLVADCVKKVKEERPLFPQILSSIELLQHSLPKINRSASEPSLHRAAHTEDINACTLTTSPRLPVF
Description: (§3) 3. Radioisotope Filter Binding Assay:
(§4) In this assay format, it directly detects the true product without the use of modified substrates or coupling enzymes (Uitdehaag, J. C., et al. Br. J. Pharmacol. 2012, 166, 858-876; Hastie, C. J., et al. Nat. Protoc. 2006, 1, 968-971) according to equation 1. Substrate+[γ−^33P]−ATP→^33P-Substrate+ADP eq 1
(§5) The protocol calls for test compound of the invention to be incubated with kinase, substrate, cofactors, and radio-isotope-labeled ATP (^33P-gamma-ATP). The reaction mixtures are then spotted onto filter papers which bind the radioisotope labeled catalytic product. Unreacted phosphate is removed via washing. The reagents used include base reaction buffer; 20 mM Hepes (pH 7.5), 10 mM MgCl2, 1 mM EGTA, 0.02% Brij35, 0.02 mg/ml BSA, 0.1 mM Na3VO4, 2 mM DTT, 1% DMSO. The reaction procedure include the following steps: (1) prepare indicated substrate in freshly prepared base reaction buffer, (2) deliver any required cofactors to the substrate solution above, (3) deliver indicated kinase into the substrate solution and gently mix, (4) deliver compounds in DMSO into the kinase reaction mixture by Acoustic technology (Echo550; nanoliter range), incubate for 20 minutes at room temperature, (5) deliver ^33P-ATP (specific activity 10 μCi/μL) into the reaction mixture to initiate the reaction, (6) incubate kinase reaction for 2 hours at room temperature, (7) reactions are spotted onto P81 ion exchange paper, (8) detect kinase activity by filter-binding method.

[5] = target: FLT3-ITD; assay: Radioisotope filter binding assay; type: biochemical; settings: read-out: IC50 Activity Levels Against Type III NRT Kinases: FLT3-ITD
Description: as §3, §4, §5

[6] = target: FYN-Y531F (Homo sapiens (Human), UniProt P06241, Y531F); assay: Radioisotope filter binding assay; type: biochemical; settings: read-out: IC50 Activity Levels Against FYN Mutant: FYN-Y531F
Description: as §3, §4, §5

[7] = target: BRK (Homo sapiens (Human), UniProt Q13882); assay: Radioisotope filter binding assay; type: biochemical; settings: read-out: IC50 Activity Levels Against FRK Family Kinases: BRK
BRK, sequence (Q13882 whole entry): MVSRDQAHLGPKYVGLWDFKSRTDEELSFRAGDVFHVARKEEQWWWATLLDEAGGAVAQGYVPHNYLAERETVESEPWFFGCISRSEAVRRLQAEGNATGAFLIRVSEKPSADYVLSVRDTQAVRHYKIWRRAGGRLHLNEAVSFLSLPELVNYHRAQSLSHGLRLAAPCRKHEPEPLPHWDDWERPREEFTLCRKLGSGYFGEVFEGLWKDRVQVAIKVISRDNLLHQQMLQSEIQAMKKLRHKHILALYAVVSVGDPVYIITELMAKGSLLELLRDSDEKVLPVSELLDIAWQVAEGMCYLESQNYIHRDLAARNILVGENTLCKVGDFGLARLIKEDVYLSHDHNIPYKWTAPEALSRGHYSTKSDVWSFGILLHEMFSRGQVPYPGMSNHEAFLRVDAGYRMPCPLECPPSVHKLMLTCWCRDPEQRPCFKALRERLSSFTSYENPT
Description: as §3, §4, §5

[8] = target: FGR (Homo sapiens (Human), UniProt P09769); assay: Radioisotope filter binding assay; type: biochemical; settings: read-out: IC50 Activity Levels Against SRC Family Kinases: FGR
FGR, sequence (P09769 whole entry): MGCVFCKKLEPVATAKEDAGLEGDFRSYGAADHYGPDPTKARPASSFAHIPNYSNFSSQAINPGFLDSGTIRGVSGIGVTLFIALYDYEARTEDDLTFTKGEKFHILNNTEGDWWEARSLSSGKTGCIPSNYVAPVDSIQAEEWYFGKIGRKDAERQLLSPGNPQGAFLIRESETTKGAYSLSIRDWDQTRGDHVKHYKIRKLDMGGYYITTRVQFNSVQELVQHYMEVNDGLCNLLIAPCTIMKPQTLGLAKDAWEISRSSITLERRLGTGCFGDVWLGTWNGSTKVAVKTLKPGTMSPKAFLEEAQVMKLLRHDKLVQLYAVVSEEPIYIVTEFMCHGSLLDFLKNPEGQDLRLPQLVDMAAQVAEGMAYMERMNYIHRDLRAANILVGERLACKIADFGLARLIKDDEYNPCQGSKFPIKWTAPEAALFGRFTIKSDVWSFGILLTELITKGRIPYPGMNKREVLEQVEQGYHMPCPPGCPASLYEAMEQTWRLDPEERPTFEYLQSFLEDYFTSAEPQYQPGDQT
Description: as §3, §4, §5

[9] = target: LYN (Homo sapiens (Human), UniProt P07948); assay: Radioisotope filter binding assay; type: biochemical; settings: read-out: IC50 Activity Levels Against SRC Family Kinases: LYN
LYN, sequence (P07948 whole entry): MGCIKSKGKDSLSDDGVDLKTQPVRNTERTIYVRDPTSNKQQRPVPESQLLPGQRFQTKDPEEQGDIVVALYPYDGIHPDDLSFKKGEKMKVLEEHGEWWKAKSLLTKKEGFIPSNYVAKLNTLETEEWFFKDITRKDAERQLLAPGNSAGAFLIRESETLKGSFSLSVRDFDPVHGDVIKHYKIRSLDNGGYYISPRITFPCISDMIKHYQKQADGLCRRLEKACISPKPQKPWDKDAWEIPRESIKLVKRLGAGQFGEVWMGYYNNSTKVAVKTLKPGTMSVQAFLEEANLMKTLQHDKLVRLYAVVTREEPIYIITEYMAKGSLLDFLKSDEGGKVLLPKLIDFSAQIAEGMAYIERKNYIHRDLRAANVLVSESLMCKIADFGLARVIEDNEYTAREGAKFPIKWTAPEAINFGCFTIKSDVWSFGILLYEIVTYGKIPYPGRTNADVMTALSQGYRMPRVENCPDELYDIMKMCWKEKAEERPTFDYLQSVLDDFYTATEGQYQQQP
Description: as §3, §4, §5

[10] = target: FYN (Homo sapiens (Human), UniProt P06241); assay: Radioisotope filter binding assay; type: biochemical; settings: read-out: IC50 Activity Levels Against SRC Family Kinases: FYN
Description: as §3, §4, §5

[11] = target: BTK (Homo sapiens (Human), UniProt Q06187); assay: Radioisotope filter binding assay; type: biochemical; settings: read-out: IC50 Activity Levels Against Representative TEC Family Kinases: BTK
BTK, sequence (Q06187 whole entry): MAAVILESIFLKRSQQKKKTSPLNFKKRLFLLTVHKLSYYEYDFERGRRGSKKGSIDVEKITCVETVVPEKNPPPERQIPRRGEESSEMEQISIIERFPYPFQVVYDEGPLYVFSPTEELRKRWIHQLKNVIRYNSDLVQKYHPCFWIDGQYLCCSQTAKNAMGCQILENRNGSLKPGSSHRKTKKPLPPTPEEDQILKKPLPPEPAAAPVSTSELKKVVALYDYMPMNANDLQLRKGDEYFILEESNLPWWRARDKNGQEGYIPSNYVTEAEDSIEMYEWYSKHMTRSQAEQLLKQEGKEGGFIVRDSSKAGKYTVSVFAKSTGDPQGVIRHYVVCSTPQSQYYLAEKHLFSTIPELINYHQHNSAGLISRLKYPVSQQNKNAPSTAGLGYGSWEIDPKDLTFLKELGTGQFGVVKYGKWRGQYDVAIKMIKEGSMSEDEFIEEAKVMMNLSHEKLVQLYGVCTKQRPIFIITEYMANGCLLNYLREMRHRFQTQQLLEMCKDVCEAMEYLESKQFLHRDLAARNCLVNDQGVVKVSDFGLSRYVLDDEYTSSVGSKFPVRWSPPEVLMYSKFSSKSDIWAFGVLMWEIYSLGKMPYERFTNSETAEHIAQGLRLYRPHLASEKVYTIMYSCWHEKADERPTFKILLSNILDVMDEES
Description: as §3, §4, §5

[12] = target: LCK (Homo sapiens (Human), UniProt P06239); assay: Radioisotope filter binding assay; type: biochemical; settings: read-out: IC50 Activity Levels Against SRC Family Kinases: LCK
Description: as §3, §4, §5

[13] = target: T1, YES1 (Homo sapiens (Human), UniProt P07947); assay: Radioisotope filter binding assay; type: biochemical; settings: read-out: IC50 Activity Levels Against SRC Family Kinases: YES1
T1 sequence (P07947 whole entry): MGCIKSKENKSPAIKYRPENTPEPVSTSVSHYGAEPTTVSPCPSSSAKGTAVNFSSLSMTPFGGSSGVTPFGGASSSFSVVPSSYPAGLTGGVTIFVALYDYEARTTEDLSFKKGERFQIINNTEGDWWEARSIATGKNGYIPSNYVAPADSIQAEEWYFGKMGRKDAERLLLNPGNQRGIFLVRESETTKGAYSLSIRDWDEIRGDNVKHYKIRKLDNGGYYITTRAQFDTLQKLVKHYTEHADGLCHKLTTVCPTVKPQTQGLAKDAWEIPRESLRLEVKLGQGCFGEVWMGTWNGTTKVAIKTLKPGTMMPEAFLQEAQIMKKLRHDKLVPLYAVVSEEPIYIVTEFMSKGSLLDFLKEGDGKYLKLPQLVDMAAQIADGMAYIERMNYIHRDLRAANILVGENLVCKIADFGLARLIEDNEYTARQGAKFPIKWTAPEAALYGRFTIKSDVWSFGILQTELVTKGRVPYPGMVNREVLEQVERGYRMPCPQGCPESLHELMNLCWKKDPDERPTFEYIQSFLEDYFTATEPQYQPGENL
Description: as §3, §4, §5

[14] = target: HCK (Homo sapiens (Human), UniProt P08631); assay: Radioisotope filter binding assay; type: biochemical; settings: read-out: IC50 Activity Levels Against SRC Family Kinases: HCK
Description: as §3, §4, §5

[15] = target: BLK (Homo sapiens (Human), UniProt P51451); assay: Radioisotope filter binding assay; type: biochemical; settings: read-out: IC50 Activity Levels Against SRC Family Kinases: BLK
BLK, sequence (P51451 whole entry): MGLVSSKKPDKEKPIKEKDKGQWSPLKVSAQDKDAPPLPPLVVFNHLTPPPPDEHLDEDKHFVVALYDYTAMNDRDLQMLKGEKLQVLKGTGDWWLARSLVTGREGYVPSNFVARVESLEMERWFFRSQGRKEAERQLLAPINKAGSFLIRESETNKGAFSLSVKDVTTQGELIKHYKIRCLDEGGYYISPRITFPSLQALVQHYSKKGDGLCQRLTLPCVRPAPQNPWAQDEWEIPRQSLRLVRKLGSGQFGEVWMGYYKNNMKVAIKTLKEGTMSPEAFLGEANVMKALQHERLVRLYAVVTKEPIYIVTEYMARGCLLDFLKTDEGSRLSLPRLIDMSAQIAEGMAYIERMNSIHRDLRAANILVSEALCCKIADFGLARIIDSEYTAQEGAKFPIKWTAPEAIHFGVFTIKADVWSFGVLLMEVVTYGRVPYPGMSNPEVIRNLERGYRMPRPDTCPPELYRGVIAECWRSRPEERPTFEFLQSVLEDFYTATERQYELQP
Description: as §3, §4, §5

[16] = target: FLT3 (Homo sapiens (Human), UniProt P36888); assay: Radioisotope filter binding assay; type: biochemical; settings: read-out: IC50 Activity Levels Against Type III NRT Kinases: FLT3
Description: as §3, §4, §5

[17] = target: SRC (Homo sapiens (Human), UniProt P12931); assay: Radioisotope filter binding assay; type: biochemical; settings: read-out: IC50 Activity Levels Against SRC Family Kinases: SRC
Description: as §3, §4, §5

[18] = target: ARAF (Homo sapiens (Human), UniProt P10398); assay: Radioisotope filter binding assay; type: biochemical; settings: read-out: IC50 Activity Levels Against MAPK Pathway Kinases: ARAF
Description: as §3, §4, §5

[19] = target: T1, YES1; assay: Kinase binding assay CaPBA; settings: read-out: IC50 Activity Levels Against FYN isoforms, YES1 and MEK5: YES1
From the text: 4. Kinase Binding Assay CaPBA:

[20] = Table 12, read-out: Kd Values Against MEK Kinases Isoforms: MEK5

Row | Kd [1] [µM] | Kd [2, 20] [µM] | Kd [3] [µM] | IC50 [4] [µM] | IC50 [5] [µM] | IC50 [6] [µM] | IC50 [7] [µM] | IC50 [8] [µM] | IC50 [9] [µM] | IC50 [10] [µM] | IC50 [11] [µM] | IC50 [12] [µM] | IC50 [13] [µM] | IC50 [14] [µM] | IC50 [15] [µM] | IC50 [16] [µM] | IC50 [17] [µM] | IC50 [18] [µM] | Kd ([2]; Table 9, read-out: Kd Values Against Representative MEK5 Kinase: MEK5) [µM] | IC50 [19] [µM] | SMILES
1 | 0.1 to 0.999 | < 0.005 | 0.1 to 0.999 | 1 to 10 | 0.1 to 0.999 | 0.005 to 0.099 | 0.005 to 0.099 | 0.005 to 0.099 | 0.1 to 0.999 | 0.005 to 0.099 | 0.005 to 0.099 | 0.005 to 0.099 | < 0.005 | 0.005 to 0.099 | 0.005 to 0.099 | 0.005 to 0.099 | 0.1 to 0.999 | 1 to 10 |  |  | Nc1ncnc2c1c(-c1ccc(Oc3ccccc3)cc1)nn2C[C@@H]1SSC[C@@H]1O [46 A.]
2 | 1 to 10 |  |  | 1 to 10 | 0.1 to 0.999 | 0.005 to 0.099 | 0.005 to 0.099 | < 0.005 | 0.005 to 0.099 | < 0.005 | 0.005 to 0.099 | < 0.005 | < 0.005 | < 0.005 | < 0.005 | 0.005 to 0.099 | 0.1 to 0.999 | 0.1 to 0.999 | < 0.005 | < 0.005 | Nc1ncnc2c1c(-c1ccc(Oc3ccccc3)cc1)nn2C[C@@H]1SSC[C@H]1O [43 A.]
3 | 0.1 to 0.999 | < 0.005 | 0.005 to 0.099 | 1 to 10 | 0.1 to 0.999 | 0.005 to 0.099 | 0.005 to 0.099 | < 0.005 | 0.005 to 0.099 | < 0.005 | 0.005 to 0.099 | < 0.005 | < 0.005 | 0.005 to 0.099 | < 0.005 | 0.005 to 0.099 | 0.005 to 0.099 | 0.1 to 0.999 |  | < 0.005 | Nc1ncnc2c1c(-c1ccc(Oc3ccccc3)cc1)nn2C[C@H]1SSC[C@H]1O [46 B.]
4 | 0.1 to 0.999 | < 0.005 | 0.005 to 0.099 |  | 0.1 to 0.999 | 0.1 to 0.999 | 0.005 to 0.099 | < 0.005 | 0.005 to 0.099 | < 0.005 | 0.005 to 0.099 | < 0.005 | < 0.005 | < 0.005 | 0.005 to 0.099 | 0.1 to 0.999 | 0.005 to 0.099 |  |  | < 0.005 | Nc1ncnc2c1c(-c1ccc(Oc3ccccc3)cc1)nn2C[C@H]1SSC[C@@H]1O [43 B.]
